Here are results for three compounds from patent US10835500B2, “Medicament for accelerated wound healing” (Symrise AG, priority 2014, dated 2020).

“Also recorded” adds a separate entry of the source. Read-outs that look alike come from different tables or passages of the source.

For experiment [1], the system named is HaCaT cells. The experiment can be described thus: Calcium imaging in HaCaT cells. The format is cell-based, human. To be noted: for calcium signals on repeated stimulation: repeated application (500 μM in FIG. 9); for EC50: calcium signal amplitude, read-out: ECR50R value. Here is the method: In the fourth application, saturation occurred at approx. 500 μM (FIG. 9d). The ECR50R value was 430 μM of Sandalore® in the first application and 112 μM of Sandalore® in the fourth application.
The Sandalore®-induced signal cascade in HaCaT cells and primary keratinocytes was pharmacologically characterized using the calcium imaging technique and specific blockers of signal cascade proteins. An investigation was first conducted in order to determine whether the calcium signals are caused by calcium inflow from the extracellular space. For this purpose, a calcium-free extracellular solution was used with a calcium chelator (EGTA) added. […] In order to investigate the role of adenylyl cyclase, the specific blockers SQ-22536 and MDL-12330A were used. […] The efficacy of the blockers was tested in this case with histamine, which activated the PLC signalling pathway (FIG. 11c). […]
In order to characterize the antagonists, HaCaT cells were first repeatedly stimulated with Sandalore® (1 mM). On the third application, costimulation (1:1) with Sandalore® and one of the antagonists took place. […] Based on this, dose-dependent characterization of inhibition was to be carried out. For this purpose, Sandalore® and the antagonists were costimulated with different concentrations.
Effect of the OR2AT4 ligand Sandalore® on intracellular calcium concentration of cultivated keratinocytes. […] 100 μM of ATP was used at the end of each measurement as a positive control stimulus. Right: Quantitative evaluation of calcium signals in 4-time application of Sandalore® (500 μM). Shown are the mean values of the individual applications including standard error. Mann-Whitney U test. *: p<0.05. C) and D): dose-dependent activation of HaCaT cells in calcium imaging experiments. Shown are the mean amplitudes including standard error at various concentrations in the first (C) and fourth (D) Sandalore® application. Number of cells measured: 0.0125 mM (39), 0.025 mM (30), 0.1 mM (46), 0.5 mM (34), 1 mM (63), 2 mM (41), 10 mM (36).
A) Representative calcium imaging traces of HaCaT cells (left) and primary keratinocytes (right) incubated with the gap junction blocker 1-octanol (500 μM) and then repeatedly stimulated with Sandalore® (500 μM, horizontal bars) (blue trace). […] 100 μM of ATP was used at the end of each measurement as a positive control stimulus. Quantitative evaluation of HaCaT cells (B) and primary keratinocytes (C) incubated with the gap junction blockers 1-octanol (500 μM) or carbenoxolone (10 μM) and then repeatedly stimulated with Sandalore® (500 μM) or Lyral (1 mM) in calcium imaging experiments. Shown are the mean values of the individual applications including standard error relative to the control measurements (Sandalore® application without blocker). Mann-Whitney U test. Number of cells measured: Sandalore®+1-octanol (HaCaT (110), keratinocytes (26)); Sandalore®+carbenoxolone: HaCaT (74); Lyral+carbenoxolone: HaCaT (43). ***: p<0.001.
Pharmacological characterization of Sandalore®-induced signal cascade in human keratinocytes. A)-D). Shown are representative calcium imaging traces of primary keratinocytes in the presence of a blocker (blue). The horizontal bars correspond to the application times. 100 μM of ATP was used at the end of each measurement as a positive control stimulus. A) Measurement with calcium-free extracellular solution (+10 mM EGTA). B) Measurement with the adenylyl cyclase blocker SQ-22536 (100 μM). C) Use of the phospholipase-C blocker U-73122 (10 μM). 100 μM of histamine was taken as a positive control. D) Measurement with the CNG channel blocker L-cis-diltiazem (150 μM). E) Overview of pharmacological measurement of HaCaT cells and primary keratinocytes (Kera). The mean amplitudes relative to the control measurements (dashed line) are indicated. MDL-12330A (40 μM). […]

Experiment [2] has as its system HaCaT cells. The experiment can be described thus: In vitro wound scratch assay, HaCaT cells. It is filed as cell-based, human. To be noted: for faster closing of the scratch: HaCaT cells, 500 μM, observed for two days. From the text: The MAP kinases p38 and ERK1/2 are often associated with increased proliferation and migration in epidermal wound healing. For this reason, in a further physiological experiment, the effect of Sandalore® on “wound healing” of a confluent cell layer of HaCaT cells or primary keratinocytes was investigated. For this purpose, the wound scratch assay was used, which is an established in vitro method for initial investigations of wound healing processes in keratinocytes.
In order to investigate the role of the OR2AT4 receptor in this effect, a test was conducted to determine whether the two antagonists Oxyphenylon and Phenirat could again reduce the “wound healing” increased by Sandalore®. For this purpose, Sandalore® was mixed with one of the antagonists each in the same ratio, and the effect on “wound healing” of the HaCaT cells was again observed for 48 hours. […] The two antagonists alone had no effect on the “wound healing” (FIG. 18d). The role of the MAP kinases p38 and ERK1/2 was investigated by means of specific inhibitors of the kinases. For p38 MAPK, the […] SB203580 was used, and for ERK1/2 MAPK, the […] U0126 was used. […] The two inhibitors alone had no effect on the wound healing (FIG. 18d).
Effect of Sandalore® stimulation on human keratinocytes in an in vitro “wound healing” assay. Investigation of the “wound healing rate” of A) primary keratinocytes and B) HaCaT cells by means of a wound scratch assay in the presence of Sandalore® (500 μM) or 0.1% DMSO as a control. Left: Transmitted light images of the “wound” observed at various times. The growth margin of the cells was surrounded in black. Scale: 200 μm. Right: Quantitative evaluation of the wound scratch assay. The areas of the wounds were measured and compared to the initial wound (0 h). Mean values including standard error. Mann-Whitney U test; n=4 experiments. *: p<0.05; ***: p<0.001. C) Wound scratch assay in the presence of Sandalore® (500 μM) and one of the antagonists Oxyphenylon (500 μM) or Phenirat (500 μM) respectively, the p38 MAPK inhibitor 5B203580 (10 μM), or the ERK1/2 MAPK inhibitor U0126 (10 μM). The measured wound areas of the treated cells (after 48-hour stimulation) were compared to the control (0.1% DMSO). Mean values including standard error. Kruskal-Wallis test with multiple comparison; n=3 experiments. *: p<0.05. D) Controls for the wound scratch assay with Oxyphenylon (500 μM), Phenirat (500 μM), 5B203580 (10 μM), or U0126 (10 μM) carried out under C). The measured wound areas of the treated cells were compared to the control (0.1% DMSO). Mean value included.

On to `CC1=CCC(CCC(C)CO)C1(C)C` (centres unmarked) [Brahmanol®], for which the “calcium signals on repeated stimulation” value with HaCaT cells [1] (HaCaT cells) is listed as “significant sensitization”. In addition, the “faster closing of the scratch” value with HaCaT cells [2] came to 26%.
Regarding `CC(=O)CCc1ccc(O)cc1` [Oxyphenylon], in the experiment on HaCaT cells [1] (Sandalore 500 μM + antagonist 100 μM), the “inhibitory action on Sandalore-induced calcium signals” value was “disappeared completely”. The “amplitude heights, % of the control amplitudes” value in the experiment on HaCaT cells [1] (Sandalore 500 μM + antagonist 250 μM) stood at 39%. Besides, the “calcium signals, % of the control amplitude (Sandalore without antagonists)” value in the experiment on HaCaT cells [1] (Sandalore 500 μM + antagonist 500 μM) came to 8%. Also, in the experiment on HaCaT cells [1] (antagonist 500 μM, Sandalore 750 μM), the “blocking of Sandalore-induced calcium signals” value is recorded as “decreased”. For the same compound, the “inhibition of Sandalore-induced calcium signals” value in the experiment on HaCaT cells [1] (antagonist 500 μM, Sandalore 1 mM) is given as “completely eliminated”. Besides, the IC50 with HaCaT cells [1] (inhibition of calcium signals induced by 500 μM Sandalore, read-out: IC50 values (mean inhibitory concentrations)) is 174 µM. Further, the “effect on Sandalore-induced calcium signals on coapplication” value with HaCaT cells [1] (third application, costimulation 1:1 with Sandalore 1 mM) was “significant reduction”. The “Sandalore-increased wound healing on coincubation” value with HaCaT cells [2] (HaCaT, 48 hours, Sandalore 500 μM + antagonist 500 μM or inhibitor 10 μM) is “reduced “wound healing” to the normal level”. Further, in the experiment with HaCaT cells [2] (HaCaT, antagonist 500 μM or inhibitor 10 μM alone), the “effect of the substance alone on wound healing” value is recorded as “no effect”.
Regarding `CC1=CCC(CCC(C)C(C)O)C1(C)C` (centres unmarked) [Sandalore®], in the experiment with HaCaT cells [1] (HaCaT cells, calcium imaging), the “share of cells repeatedly stimulated” value was 80-90%. Also, the “calcium signals on repeated stimulation” value with HaCaT cells [1] (HaCaT cells) is on record as “significant sensitization; also recorded: induced calcium signals”; with HaCaT cells [1] (HaCaT cells, listed as Sandalore), “significant sensitization”. The “concentration at which dose-dependent activation begins” value in the experiment on HaCaT cells [1] (amplitude of the first application) came out at 100 µM. Besides, the EC50 in the experiment on HaCaT cells [1] (first application) is 430 µM; with HaCaT cells [1] (fourth application), 112 µM. Moreover, the “concentration from which saturation is reached” value in the experiment with HaCaT cells [1] (first application) is recorded as “approx. 2 mM”. Also, the “concentration at which saturation occurred” value in the experiment with HaCaT cells [1] (fourth application) is recorded as “approx. 500 μM”. The “faster closing of the scratch” value with HaCaT cells [2] stood at 26%.
